Laboratory results taken from BindingDB's records for doi:10.1021/jm00046a011 (Glaxo Research and Development, 1994).

Biological target: Squalene synthase (Candida albicans)
Assay: Compound was tested for in vitro inhibitory activity against Candida albicans 2005E microsomal SQS

Row | SMILES | IC50
1 | CC[C@H](C)C[C@H](C)CCC(=O)O[C@@H]1[C@@H](O)[C@@]2(CCC(C)[C@H](OC(C)=O)[C@@H](C)Cc3ccccc3)O[C@H](C(=O)O)[C@@](O)(C(=O)O)[C@]1(C(=O)O)O2 (stereo partly drawn) [(1S,3S,4S,5R,6R,7R)-1-((4S,5S)-4-Acetoxy-3,5-dimethyl-6-phenyl-hexyl)-6-((4R,6S)-4,6-dimethyl-octanoyloxy)-4,7-dihydroxy-2,8-dioxa-bicyclo[3.2.1]octane-3,4,5-tricarboxylic acid] | 7 nM
2 | CC(CC[C@]12O[C@H](C(=O)O)[C@@](O)(C(=O)O)[C@](C(=O)O)(O1)[C@H](O)[C@H]2O)C[C@@H](C)Cc1ccccc1 (stereo partly drawn) [(1S,3S,4S,5R,6R,7R)-1-((R)-3,5-Dimethyl-6-phenyl-hexyl)-4,6,7-trihydroxy-2,8-dioxa-bicyclo[3.2.1]octane-3,4,5-tricarboxylic acid] | 200 nM
